Consider 22 molecules from paper PMC9962224, “Novel Inhibitors of Acetyl- and Butyrylcholinesterase Derived from Benzohydrazides: Synthesis, Evaluation and Docking Study” (Pharmaceuticals, 2023).

Like-named read-outs stand apart in the source and are kept apart here.

The target of assay [1] is T1, AChE (obtained from electric eel; EeAChE) (Electrophorus electricus, UniProt O42275).
T1 construct: AChE (obtained from electric eel); purchased Merck (Prague, Czech Republic); host or cells: electric eel (natural source)
T1 sequence (O42275 24-633): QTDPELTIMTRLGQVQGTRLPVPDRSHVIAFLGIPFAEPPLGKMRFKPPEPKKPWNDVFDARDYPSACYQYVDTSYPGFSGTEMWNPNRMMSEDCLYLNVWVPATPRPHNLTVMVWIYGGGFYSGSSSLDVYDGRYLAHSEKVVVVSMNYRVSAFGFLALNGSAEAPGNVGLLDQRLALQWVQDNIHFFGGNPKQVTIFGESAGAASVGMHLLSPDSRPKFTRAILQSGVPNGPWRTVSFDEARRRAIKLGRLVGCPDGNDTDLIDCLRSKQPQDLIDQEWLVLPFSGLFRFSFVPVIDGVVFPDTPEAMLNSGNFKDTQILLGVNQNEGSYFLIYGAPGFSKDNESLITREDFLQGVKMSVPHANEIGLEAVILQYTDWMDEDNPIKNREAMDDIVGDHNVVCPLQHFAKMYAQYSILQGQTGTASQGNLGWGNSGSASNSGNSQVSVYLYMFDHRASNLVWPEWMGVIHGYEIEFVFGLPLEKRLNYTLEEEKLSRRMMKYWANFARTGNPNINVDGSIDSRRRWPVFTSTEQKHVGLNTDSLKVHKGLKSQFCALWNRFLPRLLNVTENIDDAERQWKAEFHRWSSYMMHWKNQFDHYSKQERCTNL
In words: biochemical. It counts as biochemical. Conditions: for Selectivity BChE/AChE: SI = ratio of IC50 for BChE/IC50 for AChE, above 1 = stronger inhibition of AChE; for IC50: electric eel AChE, mean ± SD from three independent experiments. The text has this:
(§1) Hydrazinecarboxamides 1–3 were examined in vitro for their potential to inhibit the function of AChE (obtained from electric eel) and BChE from equine serum using Ellman’s spectrophotometric method (Table 2). The activities are expressed as IC50 values, i.e., concentrations leading to 50% inhibition of enzymatic activity. Based on the IC50 values for AChE and BChE, we calculated selectivity indexes (SI) that quantified the selectivity for each cholinesterase. SI is the ratio of IC50 for BChE/IC50 for AChE.
(§2) The enzyme activity in the final reaction mixture (2000 µL) was 0.2 U/mL, the concentration of ATCh (or BTCh) was 40 µM, and the concentration of DTNB was 100 µM for all reactions. The investigated derivatives were dissolved in DMSO and then diluted with demineralized water (conductivity 3 μS, equipment supplier BKG Water Treatment, Hradec Králové, Czech Republic) to a concentration of 1000 µM. Five different inhibitor concentrations were used for all tested compounds in the final reaction mixture. The final concentration of DMSO was 0.2%. All experiments were performed in triplicate. The average values of the reaction rate (v0-uninhibited reaction, vi-inhibited reaction) were used to construct the dependence of v0/vi on the concentration of inhibitors. IC50 values were calculated from obtained regression curve equations.
(§3) Acetylcholinesterase originating from electric eels (Electrophorus electricus L.; EeAChE) and butyrylcholinesterase obtained from equine serum (EqBChE) were used.

Assay [2] addresses T2, BChE from equine serum (EqBChE) (Equus caballus, UniProt P81908).
T2 construct: BChE from equine serum; purchased Merck (Prague, Czech Republic); host or cells: equine serum (natural source)
In words: biochemical. Conditions: equine serum BChE; mean ± SD from three independent experiments. It is filed as biochemical.
From the text: as §1, §2, §3

The target of assay [3] is T2, BChE from equine serum (EqBChE). Conditions: parent N-alkyl-2-[4-(trifluoromethyl)benzoyl]hydrazine-1-carboxamides; cited from earlier work.

T2 sequence (P81908 whole entry): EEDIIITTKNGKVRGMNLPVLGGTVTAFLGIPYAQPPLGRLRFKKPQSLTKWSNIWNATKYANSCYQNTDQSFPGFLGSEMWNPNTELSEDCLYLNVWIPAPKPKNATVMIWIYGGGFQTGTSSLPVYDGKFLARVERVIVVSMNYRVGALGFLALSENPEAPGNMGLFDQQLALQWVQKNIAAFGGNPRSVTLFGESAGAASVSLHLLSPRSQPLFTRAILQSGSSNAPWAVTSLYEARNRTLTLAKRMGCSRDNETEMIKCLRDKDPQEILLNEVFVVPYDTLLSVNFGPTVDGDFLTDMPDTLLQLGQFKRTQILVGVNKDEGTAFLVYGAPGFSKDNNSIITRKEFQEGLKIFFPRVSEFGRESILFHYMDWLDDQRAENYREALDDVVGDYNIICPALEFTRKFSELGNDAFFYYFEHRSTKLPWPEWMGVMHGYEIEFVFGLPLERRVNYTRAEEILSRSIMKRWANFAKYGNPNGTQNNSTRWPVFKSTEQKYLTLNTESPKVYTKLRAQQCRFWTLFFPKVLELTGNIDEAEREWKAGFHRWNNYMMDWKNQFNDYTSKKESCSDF

For the molecule `CCCCCCCCCCCCCNC(=O)NNC(=O)c1ccc(O)cc1` [1bb, 2-(4-Hydroxybenzoyl)-N-tridecylhydrazine-1-carboxamide], the “Selectivity BChE/AChE” value in assay [1] was determined as 2.0. Besides, the results for the IC50 in assay [1] and in assay [2] were 74.7 ± 3.31 µM and 149 ± 10.7 µM, respectively.

In the case of `CCCCCCCCCCCCCNC(=O)NNC(=O)c1ccc(N(C)C)cc1` [1z, 2-[4-(Dimethylamino)benzoyl]-N-tridecylhydrazine-1-carboxamide], in assay [1], the “Selectivity BChE/AChE” value is 2.1. The IC50 in assay [1] was found to be 87.67 ± 0.83 µM; in assay [2], 188 ± 2.22 µM.

In the case of `CCCCCCCCCCCCCNC(=O)NNC(=O)c1ccc(C(F)(F)F)cc1` [P2], the IC50 in assay [3] was 277 ± 10.3 µM.

Take `CNC(=O)NNC(=O)c1ccc(C(C)(C)C)cc1` [1q]: in assay [1], the “Selectivity BChE/AChE” value is given as 4.7 and the IC50 is 60 ± 2.47 µM. In assay [2], this molecule came in with an IC50 of 281 ± 7.79 µM.

For `CNC(=O)NNC(=O)c1ccc(-c2ccccc2)cc1` [1s, N-Methyl-2-(4-phenylbenzoyl)hydrazine-1-carboxamide], in assay [1], the “Selectivity BChE/AChE” value came out at 4.7. The IC50 in assay [1] turned out to be 64.4 ± 1.67 µM; in assay [2], 301 ± 7.46 µM.

For `CNC(=O)NNC(=O)c1ccccc1` [1ee, 2-Benzoyl-N-methylhydrazine-1-carboxamide], in assay [1], the “Selectivity BChE/AChE” value was 3.6 and the midpoint of inhibition, the IC50, lay at 63.3 ± 1.49 µM. Also, in assay [2], the IC50 worked out at 229.21 ± 0.08 µM.

As for `CCCCCCCCCCCCCNC(=O)NNC(=O)c1ccc(S(N)(=O)=O)cc1` [1dd, 2-(4-Sulfamoylbenzoyl)-N-tridecylhydrazine-1-carboxamide], in assay [1], the “Selectivity BChE/AChE” value is on record as 3.7 and the IC50 was 74.6 ± 1.12 µM. Moreover, in assay [2], it took 275 ± 10.7 µM to reach half-maximal inhibition (IC50).

As for `CCCCCCCCCCCCCNC(=O)NNC(=O)Cc1ccc(C(F)(F)F)cc1` [3b, N-Tridecyl-2-{2-[4-(trifluoromethyl)phenyl]acetyl}hydrazine-1-carboxamide], in assay [1], the “Selectivity BChE/AChE” value worked out at 3.6 and the IC50 worked out at 81.69 ± 0.45 µM. In assay [2], inhibition was half-maximal at 292.9 ± 1.72 µM (IC50).

With `CCCCCCCCCCCCCNC(=O)NNC(=O)c1ccc(-c2ccccc2)cc1` [1t, 2-(4-Phenylbenzoyl)-N-tridecylhydrazine-1-carboxamide], the “Selectivity BChE/AChE” value in assay [1] stood at 0.6. The IC50 stood at 51.1 ± 0.98 µM in assay [1] and 32.1 ± 0.18 µM in assay [2].

As for `CNC(=O)NNC(=O)c1ccc(N(C)C)cc1` [1y, 2-[4-(Dimethylamino)benzoyl]-N-methylhydrazine-1-carboxamide], in assay [1], the “Selectivity BChE/AChE” value amounted to 4.3 and the IC50 came out at 70 ± 1.74 µM. This molecule also gave an IC50 in assay [2] of 300 ± 13.6 µM.

With `CCCCCCCCCCCCCNC(=O)NNC(=O)c1ccccc1` [1ff, 2-Benzoyl-N-tridecylhydrazine-1-carboxamide], in assay [1], the “Selectivity BChE/AChE” value came out at 3.2. In addition, the results for the IC50 in assay [1] and in assay [2] were 73.4 ± 2.45 µM and 235 ± 5.57 µM, respectively.

Consider `CCCCCCCCCCCCCNC(=O)NNC(=O)c1ccc(I)cc1` [1j, 2-(4-Iodobenzoyl)-N-tridecylhydrazine-1-carboxamide], for which the “Selectivity BChE/AChE” value in assay [1] is 2.4. Also, the IC50 in assay [1] worked out at 79.7 ± 2.08 µM; in assay [2] it was 192 ± 3.45 µM.

Regarding `CCCCCCCCCCCCCNC(=O)NNC(=O)c1ccc(Cl)cc1` [1f, 2-(4-Chlorobenzoyl)-N-tridecylhydrazine-1-carboxamide], in assay [1], the “Selectivity BChE/AChE” value was determined as 1.0. Moreover, the results for the IC50 in assay [1] and in assay [2] were 86.59 ± 0.29 µM and 88.7 ± 3.28 µM, respectively.

As for `CNC(=O)NNC(=O)c1ccc(S(N)(=O)=O)cc1` [1cc, N-Methyl-2-(4-sulfamoylbenzoyl)hydrazine-1-carboxamide], the “Selectivity BChE/AChE” value in assay [1] was determined as 2.9. For the same molecule, the IC50 in assay [1] was determined as 86.14 ± 0.5 µM; in assay [2], 250 ± 5.22 µM.

As for `CCCCCCCCCCCCCNC(=O)NNC(=O)c1cccc(Br)c1` [2j, 2-(3-Bromobenzoyl)-N-tridecylhydrazine-1-carboxamide], in assay [1], the “Selectivity BChE/AChE” value was more than 11.3 and half-maximal inhibition (IC50) required 44.34 ± 0.1 µM. Further, in assay [2], the IC50 was more than 500 µM.

Consider `CCCCCCCCCCCCCNC(=O)NNC(=O)c1ccccc1[N+](=O)[O-]` [2h, 2-(2-Nitrobenzoyl)-N-tridecylhydrazine-1-carboxamide], for which, in assay [1], the “Selectivity BChE/AChE” value was more than 9.1 and the IC50 turned out to be 54.9 ± 1.08 µM. This molecule displayed an IC50 in assay [2] of more than 500 µM.

With `CCCCCCCCCCCCCNC(=O)NNS(=O)(=O)c1ccc(C(F)(F)F)cc1` [3d, N-Tridecyl-2-{[4-(trifluoromethyl)phenyl]sulfonyl}hydrazine-1-carboxamide], in assay [1], the “Selectivity BChE/AChE” value is listed as more than 8.4 and 58.8 ± 0.96 µM corresponded to half-maximal inhibition (IC50). In addition, in assay [2], the IC50 amounted to 339 ± 11.6 µM.

Take `CCCCCCCCCCCCCNC(=O)NNC(=O)c1ccc(C#N)cc1` [1n, 2-(4-Cyanobenzoyl)-N-tridecylhydrazine-1-carboxamide]: in assay [1], the “Selectivity BChE/AChE” value came to 7.6 and 54.6 ± 1.27 µM corresponded to half-maximal inhibition (IC50). The molecule also yielded an IC50 in assay [2] of 418 ± 15.7 µM.

As to `CNC(=O)NNC(=O)Cc1ccc(C(F)(F)F)cc1` [3a, N-Methyl-2-{2-[4-(trifluoromethyl)phenyl]acetyl}hydrazine-1-carboxamide], the “Selectivity BChE/AChE” value in assay [1] amounted to 1.9. The IC50 in assay [1] worked out at 68.51 ± 0.25 µM; in assay [2] it was 131 ± 9.7 µM.

As for `CNC(=O)NNC(=O)c1ccccc1[N+](=O)[O-]` [2g, N-Methyl-2-(2-nitrobenzoyl)hydrazine-1-carboxamide], in assay [1], the “Selectivity BChE/AChE” value worked out at 3.0 and half-maximal inhibition (IC50) required 64.3 ± 2.23 µM. In assay [2], this molecule came in with an IC50 of 191 ± 10.1 µM.

For `CNC(=O)NNC(=O)c1ccccc1C(F)(F)F` [2c, N-Methyl-2-[2-(trifluoromethyl)benzoyl]hydrazine-1-carboxamide], in assay [1], the “Selectivity BChE/AChE” value is on record as 4.8 and the IC50 was 61.09 ± 0.03 µM. In addition, the IC50 in assay [2] worked out at 296.2 ± 0.87 µM.

Turning to `CCCCCCCCCCCCCNC(=O)NNC(=O)c1ccccc1Br` [2l, 2-(2-Bromobenzoyl)-N-tridecylhydrazine-1-carboxamide], the “Selectivity BChE/AChE” value in assay [1] is more than 9.3. In addition, the figures for the 50% inhibitory concentration (IC50) in assay [1] and in assay [2] were 53.99 ± 0.44 µM and more than 500 µM, respectively.

A word on the IC50: it is the concentration needed to halve the response being measured.
